# ChEMBL document CHEMBL3886652, “Arlethynyl derivatives” (2016)
# Target: Metabotropic glutamate receptor 5 (Homo sapiens, UniProt P41594)
# Experiment: Intracellular Ca2+ Mobilization Assay: A monoclonal HEK-293 cell line stably transfected with a cDNA encoding for the human mGlu5a receptor was generated; for the work with mGlu5 Positive Allosteric Modulators (PAMs), a cell line with low receptor expression levels and low constitutive receptor activity was selected to allow the differentiation of agonistic versus PAM activity. Cells were cultured according to standard protocols (Freshney, 2000) in Dulbecco's Modified Eagle Medium with high glucose supplemented with 1 mM glutamine, 10% (vol/vol) heat-inactivated bovine calf serum, Penicillin/Streptomycin, 50 μg/ml hygromycin and 15 μg/ml blasticidin (all cell culture reagents and antibiotics from Invitrogen, Basel, Switzerland). bout 24 hrs before an experiment, 5×10^4 cells/well were seeded in poly-D-lysine coated, black/clear-bottomed 96-well plates. The cells were loaded with 2.5 μM Fluo-4AM in loading buffer (1×HBSS, 20 mM HEPES) for 1 hr at 37 °C. and washed five times with loading buffer. The cells were transferred into a Functional Drug Screening System 7000 (Hamamatsu, Paris, France), and 11 half logarithmic serial dilutions of test compound at 37 °C. were added and the cells were incubated for 10-30 min. with on-line recording of fluorescence. […]
# Format: cell-based, HEK293
# Sequence of Metabotropic glutamate receptor 5 (P41594 whole entry): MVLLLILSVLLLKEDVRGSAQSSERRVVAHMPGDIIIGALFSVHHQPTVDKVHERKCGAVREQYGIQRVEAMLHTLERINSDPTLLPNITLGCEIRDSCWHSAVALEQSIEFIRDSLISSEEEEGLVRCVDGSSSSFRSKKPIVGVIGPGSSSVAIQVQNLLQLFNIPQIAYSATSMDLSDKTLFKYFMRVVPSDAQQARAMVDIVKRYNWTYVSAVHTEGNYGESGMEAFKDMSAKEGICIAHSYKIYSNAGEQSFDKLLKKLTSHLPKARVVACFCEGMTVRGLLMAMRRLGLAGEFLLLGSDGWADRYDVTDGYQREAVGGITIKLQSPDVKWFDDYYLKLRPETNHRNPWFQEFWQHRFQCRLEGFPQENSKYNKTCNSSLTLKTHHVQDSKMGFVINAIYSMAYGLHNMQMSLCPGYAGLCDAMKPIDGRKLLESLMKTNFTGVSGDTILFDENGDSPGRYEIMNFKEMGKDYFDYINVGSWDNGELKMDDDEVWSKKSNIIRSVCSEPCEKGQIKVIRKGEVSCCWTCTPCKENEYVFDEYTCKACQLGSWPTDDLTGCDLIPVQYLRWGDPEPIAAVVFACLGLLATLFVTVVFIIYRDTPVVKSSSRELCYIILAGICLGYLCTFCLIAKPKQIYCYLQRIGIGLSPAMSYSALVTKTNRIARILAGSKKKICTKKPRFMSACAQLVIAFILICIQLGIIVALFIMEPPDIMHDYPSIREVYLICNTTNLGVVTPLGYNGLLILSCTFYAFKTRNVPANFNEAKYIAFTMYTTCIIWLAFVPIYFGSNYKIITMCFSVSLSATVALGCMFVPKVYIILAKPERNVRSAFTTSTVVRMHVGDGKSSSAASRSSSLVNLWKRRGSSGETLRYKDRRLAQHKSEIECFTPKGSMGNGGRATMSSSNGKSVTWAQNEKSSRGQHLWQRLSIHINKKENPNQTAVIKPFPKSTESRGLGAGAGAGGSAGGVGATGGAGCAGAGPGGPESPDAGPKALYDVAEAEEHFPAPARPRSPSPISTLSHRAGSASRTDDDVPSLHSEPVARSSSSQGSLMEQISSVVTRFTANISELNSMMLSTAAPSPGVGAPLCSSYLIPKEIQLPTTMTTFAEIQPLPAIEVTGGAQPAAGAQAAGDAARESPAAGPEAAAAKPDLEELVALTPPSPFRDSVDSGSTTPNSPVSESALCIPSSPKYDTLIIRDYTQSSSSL
row,Compound,EC50
1,CCN1C(=O)N(c2ccc(C#Cc3cccnc3)cn2)C2CCCCC21 (configuration not stated),0.069 µM
2,CN1CC(C)(C)CN(c2ccc(C#Cc3ccccc3)cn2)C1=O,0.033 µM
